Test results published in patent US10988477B2 (Merck Patent GmbH, priority 2018, dated 2021).

Experiments:
GCN2 kinase = GCN2 kinase (Homo sapiens, UniProt Q9P2K8); experiment: GCN2 enzyme inhibition assay (Transcreener ADP2 fluorescence polarization); assay type: biochemical; details: Enzyme activity for compounds of Formula IV; Ki(app), 280 μM ATP, 25° C.
Method in brief: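 Kinase activity is followed as ADP formation, measured by fluorescence polarization, using 4 nM enzyme with 280 μM ATP and 200 μM (RS)7 peptide at pH 7.5 and 25 °C for 1 h. Values come from a non-linear tight-binding fit.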

[1] = target: intracellular GCN2 (phosphorylation of the GCN2 substrate eIF2α) (Homo sapiens, UniProt Q9P2K8); experiment: GCN2 cellular inhibition assay (AlphaScreen SureFire P-eIF2α Ser51, borrelidin-treated U2OS cells); assay type: cell-based; details: compounds of Formula IV; biomarker assay, phosphorylated eIF2α Ser51 in borrelidin-treated U2OS cells
Method in brief: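 Borrelidin at 10 μM is added to U2OS cells immediately after compound (4-fold dilution series, 40 μM top final) for 1 h at 37 °C. Phosphorylated eIF2α Ser51 in lysates is quantified by AlphaScreen and expressed as percent inhibition against borrelidin-stimulated controls.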

Sequence of intracellular GCN2 (phosphorylation of the GCN2 substrate eIF2α) (Q9P2K8 whole entry): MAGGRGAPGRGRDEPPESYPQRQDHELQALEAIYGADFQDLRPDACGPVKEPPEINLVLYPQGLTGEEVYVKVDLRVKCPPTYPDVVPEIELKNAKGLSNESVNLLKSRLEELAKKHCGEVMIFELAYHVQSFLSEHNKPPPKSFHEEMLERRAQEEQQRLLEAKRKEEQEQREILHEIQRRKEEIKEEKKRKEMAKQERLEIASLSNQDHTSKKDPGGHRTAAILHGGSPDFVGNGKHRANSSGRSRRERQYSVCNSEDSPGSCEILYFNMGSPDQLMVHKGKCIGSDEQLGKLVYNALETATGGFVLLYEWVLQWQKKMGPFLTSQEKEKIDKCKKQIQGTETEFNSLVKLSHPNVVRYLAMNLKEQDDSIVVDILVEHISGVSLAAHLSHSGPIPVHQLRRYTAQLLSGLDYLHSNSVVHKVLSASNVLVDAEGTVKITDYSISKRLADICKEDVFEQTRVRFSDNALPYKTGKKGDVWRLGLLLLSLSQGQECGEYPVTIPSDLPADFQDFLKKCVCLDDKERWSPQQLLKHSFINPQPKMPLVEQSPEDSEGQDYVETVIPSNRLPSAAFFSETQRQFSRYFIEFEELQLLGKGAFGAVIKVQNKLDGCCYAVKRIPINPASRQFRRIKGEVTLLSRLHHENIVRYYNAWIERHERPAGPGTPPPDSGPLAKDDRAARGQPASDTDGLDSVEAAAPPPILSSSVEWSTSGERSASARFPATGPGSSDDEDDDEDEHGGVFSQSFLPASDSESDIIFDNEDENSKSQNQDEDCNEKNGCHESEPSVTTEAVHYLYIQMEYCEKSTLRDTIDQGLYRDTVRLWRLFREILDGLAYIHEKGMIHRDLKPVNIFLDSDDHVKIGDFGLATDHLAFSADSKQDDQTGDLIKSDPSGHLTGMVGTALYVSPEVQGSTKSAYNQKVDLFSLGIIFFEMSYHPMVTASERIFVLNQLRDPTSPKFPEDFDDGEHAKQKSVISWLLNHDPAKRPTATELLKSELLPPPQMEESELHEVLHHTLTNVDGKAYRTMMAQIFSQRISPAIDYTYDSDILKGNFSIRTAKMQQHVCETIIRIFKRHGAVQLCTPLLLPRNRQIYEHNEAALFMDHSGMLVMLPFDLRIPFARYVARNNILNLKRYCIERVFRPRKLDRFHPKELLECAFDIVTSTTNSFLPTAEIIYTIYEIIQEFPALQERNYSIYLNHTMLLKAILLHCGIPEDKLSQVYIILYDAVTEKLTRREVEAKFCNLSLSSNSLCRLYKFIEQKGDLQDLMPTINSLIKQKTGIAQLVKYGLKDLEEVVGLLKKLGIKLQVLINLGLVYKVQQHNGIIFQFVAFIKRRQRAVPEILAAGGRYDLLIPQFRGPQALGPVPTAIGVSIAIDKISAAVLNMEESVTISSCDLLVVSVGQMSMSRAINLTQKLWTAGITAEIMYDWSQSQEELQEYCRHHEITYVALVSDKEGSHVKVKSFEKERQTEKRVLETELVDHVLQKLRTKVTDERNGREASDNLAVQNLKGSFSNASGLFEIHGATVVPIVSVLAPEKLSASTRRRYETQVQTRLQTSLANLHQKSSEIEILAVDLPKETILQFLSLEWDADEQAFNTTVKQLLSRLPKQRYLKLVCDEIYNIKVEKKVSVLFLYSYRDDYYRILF
Sequence of GCN2 kinase (Q9P2K8 whole entry): as above

| SMILES | Ki (GCN2 kinase) | IC50 [1] |
| --- | --- | --- |
| CS(C)(=O)=NC1CC(c2cn[nH]c2)CN(c2ccnc(-c3cnc4cnc(C(F)(F)F)cn34)n2)C1 (single isomer, unassigned) [IV-399, ((5-(1H-Pyrazol-4-yl)-1-(2-(6-(trifluoromethyl)imidazo[1,2-a]pyrazin-3-yl)pyrimidin-4-yl)piperidin-3-yl)imino)dimethyl-λ^6-sulfanone] | < 10 nM | 500 to 5000 nM |
| CS(C)(=O)=NC1CC(c2cn[nH]c2)CN(c2ccnc(-c3cnc4cnc(C(F)(F)F)cn34)n2)C1 (single isomer, unassigned) [IV-400, ((5-(1H-Pyrazol-4-yl)-1-(2-(6-(trifluoromethyl)imidazo[1,2-a]pyrazin-3-yl)pyrimidin-4-yl)piperidin-3-yl)imino)dimethyl-λ^6-sulfanone] | 10 to 100 nM | > 5000 nM |
| CCN1CCN(c2ccnc(-c3cnc4cnc(Br)cn34)n2)[C@@H](C)[C@H]1c1cn[nH]c1 (single isomer, unassigned) [IV-401, Cis-6-Bromo-3-(4-(4-ethyl-2-methyl-3-(1H-pyrazol-4-yl)piperazin-1-yl)pyrimidin-2-yl)imidazo[1,2-a]pyrazine] | 10 to 100 nM | 500 to 5000 nM |
| CCN1CCN(c2ccnc(-c3cnc4cnc(Br)cn34)n2)[C@@H](C)[C@H]1c1cn[nH]c1 (single isomer, unassigned) [IV-402, Cis-6-Bromo-3-(4-(4-ethyl-2-methyl-3-(1H-pyrazol-4-yl)piperazin-1-yl)pyrimidin-2-yl)imidazo[1,2-a]pyrazine] | < 10 nM | < 500 nM |
| CC1CN(c2nccc(-c3cnc4cnc(Br)cn34)n2)C(C)C(c2cn[nH]c2)N1 (single isomer, unassigned) [IV-403, 6-Bromo-3-(2-(2,5-dimethyl-3-(1H-pyrazol-4-yl)piperazin-1-yl)pyrimidin-4-yl)imidazo[1,2-a]pyrazine] | < 10 nM | < 500 nM |
| CC1CN(c2nccc(-c3cnc4cnc(Br)cn34)n2)C(C)C(c2cn[nH]c2)N1 (single isomer, unassigned) [IV-404, 6-Bromo-3-(2-(2,5-dimethyl-3-(1H-pyrazol-4-yl)piperazin-1-yl)pyrimidin-4-yl)imidazo[1,2-a]pyrazine] | 100 to 1000 nM | 500 to 5000 nM |
| CC1CN(c2ccnc(-c3cnc4cnc(C(F)(F)F)cn34)n2)CC(c2c[nH]cn2)O1 (single isomer, unassigned) [IV-405, 2-(1H-Imidazol-4-yl)-6-methyl-4-(2-(6-(trifluoromethyl)imidazo[1,2-a]pyrazin-3-yl)pyrimidin-4-yl)morpholine] | < 10 nM | < 500 nM |
| CC1CN(c2ccnc(-c3cnc4cnc(C(F)(F)F)cn34)n2)CC(c2c[nH]cn2)O1 (single isomer, unassigned) [IV-406, 2-(1H-Imidazol-4-yl)-6-methyl-4-(2-(6-(trifluoromethyl)imidazo[1,2-a]pyrazin-3-yl)pyrimidin-4-yl)morpholine] | 10 to 100 nM | > 5000 nM |
| CC1CN(c2nccc(-c3cnc4cnc(Cl)cn34)n2)C(C)C(c2cn[nH]c2)N1 (single isomer, unassigned) [IV-407, 6-Chloro-3-(2-(2,5-dimethyl-3-(1H-pyrazol-4-yl)piperazin-1-yl)pyrimidin-4-yl)imidazo[1,2-a]pyrazine] | < 10 nM | 500 to 5000 nM |
| CC1CN(c2nccc(-c3cnc4cnc(Cl)cn34)n2)C(C)C(c2cn[nH]c2)N1 (single isomer, unassigned) [IV-408, 6-Chloro-3-(2-(2,5-dimethyl-3-(1H-pyrazol-4-yl)piperazin-1-yl)pyrimidin-4-yl)imidazo[1,2-a]pyrazine] | 100 to 1000 nM | > 5000 nM |
| CC1C(c2cn[nH]c2)NCCN1c1ccnc(-c2cnc3cnc(Br)cn23)n1 (single isomer, unassigned) [IV-413, 6-Bromo-3-(4-(2-methyl-3-(1H-pyrazol-4-yl)piperazin-1-yl)pyrimidin-2-yl)imidazo[1,2-a]pyrazine] | 10 to 100 nM | 500 to 5000 nM |
| CC1C(c2cn[nH]c2)NCCN1c1ccnc(-c2cnc3cnc(Br)cn23)n1 (single isomer, unassigned) [IV-414, 6-Bromo-3-(4-(2-methyl-3-(1H-pyrazol-4-yl)piperazin-1-yl)pyrimidin-2-yl)imidazo[1,2-a]pyrazine] | < 10 nM | < 500 nM |
| CC1C(c2cn[nH]c2)CCCN1c1ccnc(-c2cnc3cnc(C(F)(F)F)cn23)n1 (single isomer, unassigned) [IV-419, 3-(4-(2-Methyl-3-(1H-pyrazol-4-yl)piperidin-1-yl)pyrimidin-2-yl)-6-(trifluoromethyl)imidazo[1,2-a]pyrazine] | 100 to 1000 nM | 500 to 5000 nM |
| CC1C(c2cn[nH]c2)CCCN1c1ccnc(-c2cnc3cnc(C(F)(F)F)cn23)n1 (single isomer, unassigned) [IV-420, 3-(4-(2-Methyl-3-(1H-pyrazol-4-yl)piperidin-1-yl)pyrimidin-2-yl)-6-(trifluoromethyl)imidazo[1,2-a]pyrazine] | < 10 nM | < 500 nM |
| CC1CN(c2ccnc(-c3cnc4cnc(C(F)(F)F)cn34)n2)C(C)C(c2cn[nH]c2)O1 (single isomer, unassigned) [IV-450, 3,6-Dimethyl-2-(1H-pyrazol-4-yl)-4-(2-(6-(trifluoromethyl)imidazo[1,2-a]pyrazin-3-yl)pyrimidin-4-yl)morpholine] | 100 to 1000 nM | 500 to 5000 nM |
| CC1CN(c2ccnc(-c3cnc4cnc(C(F)(F)F)cn34)n2)C(C)C(c2cn[nH]c2)O1 (single isomer, unassigned) [IV-451, 3,6-Dimethyl-2-(1H-pyrazol-4-yl)-4-(2-(6-(trifluoromethyl)imidazo[1,2-a]pyrazin-3-yl)pyrimidin-4-yl)morpholine] | < 10 nM | < 500 nM |
| Cc1[nH]ncc1C1CN(c2ccnc(-c3cnc4cnc(C(F)(F)F)cn34)n2)CC(C)N1 (single isomer, unassigned) [IV-458, 3-(4-(3-Methyl-5-(5-methyl-1H-pyrazol-4-yl)piperazin-1-yl)pyrimidin-2-yl)-6-(trifluoromethyl)imidazo[1,2-a]pyrazine] | 100 to 1000 nM | > 5000 nM |
| Cc1[nH]ncc1C1CN(c2ccnc(-c3cnc4cnc(C(F)(F)F)cn34)n2)CC(C)N1 (single isomer, unassigned) [IV-459, 3-(4-(3-Methyl-5-(5-methyl-1H-pyrazol-4-yl)piperazin-1-yl)pyrimidin-2-yl)-6-(trifluoromethyl)imidazo[1,2-a]pyrazine] | 10 to 100 nM | 500 to 5000 nM |
| CC1CN(c2ccnc(-c3cnc4cnc(C(F)(F)F)cn34)n2)CC(c2cn[nH]c2)N1 (single isomer, unassigned) [IV-460, 3-(4-(3-Methyl-5-(1H-pyrazol-4-yl)piperazin-1-yl)pyrimidin-2-yl)-6-(trifluoromethyl)imidazo[1,2-a]pyrazine] | 100 to 1000 nM | 500 to 5000 nM |
| CC1CN(c2ccnc(-c3cnc4cnc(C(F)(F)F)cn34)n2)CC(c2cn[nH]c2)N1 (single isomer, unassigned) [IV-461, 3-(4-(3-Methyl-5-(1H-pyrazol-4-yl)piperazin-1-yl)pyrimidin-2-yl)-6-(trifluoromethyl)imidazo[1,2-a]pyrazine] | 10 to 100 nM | 500 to 5000 nM |
| Cc1[nH]ncc1C1CN(c2ccnc(-c3cnc4cnc(C(F)F)cn34)n2)CC(C)N1 (single isomer, unassigned) [IV-462, 6-(Difluoromethyl)-3-(4-(3-methyl-5-(5-methyl-1H-pyrazol-4-yl)piperazin-1-yl)pyrimidin-2-yl)imidazo[1,2-a]pyrazine] | 100 to 1000 nM | > 5000 nM |
| Cc1[nH]ncc1C1CN(c2ccnc(-c3cnc4cnc(C(F)F)cn34)n2)CC(C)N1 (single isomer, unassigned) [IV-463, 6-(Difluoromethyl)-3-(4-(3-methyl-5-(5-methyl-1H-pyrazol-4-yl)piperazin-1-yl)pyrimidin-2-yl)imidazo[1,2-a]pyrazine] | 100 to 1000 nM | > 5000 nM |
| Cc1n[nH]c(C)c1C1CN(c2ccnc(-c3cnc4cnc(C(F)(F)F)cn34)n2)CC(C)N1 (single isomer, unassigned) [IV-465, 3-(4-(3-(3,5-Dimethyl-1H-pyrazol-4-yl)-5-methylpiperazin-1-yl)pyrimidin-2-yl)-6-(trifluoromethyl)imidazo[1,2-a]pyrazine] | 10 to 100 nM | 500 to 5000 nM |
| Cc1n[nH]c(C)c1C1CN(c2ccnc(-c3cnc4cnc(C(F)(F)F)cn34)n2)CC(C)N1 (single isomer, unassigned) [IV-467, 3-(4-(3-(3,5-Dimethyl-1H-pyrazol-4-yl)-5-methylpiperazin-1-yl)pyrimidin-2-yl)-6-(trifluoromethyl)imidazo[1,2-a]pyrazine] | 100 to 1000 nM | > 5000 nM |
| Cc1n[nH]cc1C1CCCN(c2ccnc(-c3cnc4cnc(C(F)F)cn34)n2)C1 (single isomer, unassigned) [IV-468, 6-(Difluoromethyl)-3-(4-(3-(3-methyl-1H-pyrazol-4-yl)piperidin-1-yl)pyrimidin-2-yl)imidazo[1,2-a]pyrazine] | 10 to 100 nM | 500 to 5000 nM |
| Cc1n[nH]cc1C1CCCN(c2ccnc(-c3cnc4cnc(C(F)F)cn34)n2)C1 (single isomer, unassigned) [IV-469, 6-(Difluoromethyl)-3-(4-(3-(3-methyl-1H-pyrazol-4-yl)piperidin-1-yl)pyrimidin-2-yl)imidazo[1,2-a]pyrazine] | 10 to 100 nM | > 5000 nM |
| Cc1[nH]ncc1C1CCCN(c2ccnc(-c3cnc4cnc(C(F)(F)F)cn34)n2)C1 (single isomer, unassigned) [IV-470, 3-(4-(3-(5-Methyl-1H-pyrazol-4-yl)piperidin-1-yl)pyrimidin-2-yl)-6-(trifluoromethyl)imidazo[1,2-a]pyrazine] | < 10 nM | > 5000 nM |
